Laboratory results reported in patent US4985416A, “Platinum complexes of azodiazonium dyes as anti-tumor agents” (priority 1989, dated 1991).
Like-named read-outs stand apart in the source and are kept apart here.

What was measured:
Lewis Lung = experiment: Tumor growth delay in vivo, Lewis Lung solid tumor; set-up: species or system mice (C57BL/6J); conditions: day 7, to reach 500 mm^3
Protocol: (§1) Anti-tumor activity of the complex prepared as described above was determined in vivo in mice by comparative tests against Fast Black dye alone and against Cis-diamminedichloroplatinum (CDDP) using the following procedure Two different solid tumor cell lines were employed, Lewis Lung and FSaII, 2×10^6 tumor cells being implanted i.m. into the legs of male C57BL/6J and C3H/He mice 8 to 10 weeks of age, respectively. The drugs were administered i.p. on day 7 after tumor implantation (when tumors were about 100 mm^3 in volume), in solution (0.5%) in 0.9% phosphate-buffered saline as carrier. Tumor growth delay is reported in Table I below as the difference in number of days for the treated tumors to reach 500 mm^3 in volume and the number of days required for untreated control tumors to reach the same volume (n=14 in each group). Tumor volume was calculated as a hemiellipsoid. In the control animals, tumors reached the specified volume in 12-14 days.

FSaII = experiment: Tumor growth delay in vivo, FSaII solid tumor; set-up: species or system mice (C3H/He); conditions: day 7, to reach 500 mm^3
Protocol: as §1

Lewis Lung carcinoma = experiment: Anti-metastatic activity: lung metastases from Lewis Lung carcinoma; assay type: in vivo, mice; conditions: day 7, lungs day 20, control 14
Protocol: as §1
Anti-metastatic activity was determined by implanting Lewis Lung carcinoma cells in the legs of mice as described above, administering drugs in the doses indicated in Table II below, i.p. on day 7 after implantation and removing the lungs on day 20 followed by counting metastases. Control mice received no drug (n=14 in each group).

FSaII fibrosarcoma cells [1] = experiment: Enhancement of killing effect of heat treatment (hyperthermia) in vivo: growth delay; set-up: species or system mice
Protocol: FSaII fibrosarcoma cells (2×10^6 FSaII cells) were implanted in the legs of mice: the drug was administered i.p. when the tumor had grown to approximately 50 mm^3 in volume, using 0.9% phosphate buffered saline as carrier, as described above in the doses shown in Table 3 below. Fifteen minutes later radiation was delivered locally to the tumor bearing limb as a single dose of 10, 20, or 30 gray as indicated in the table. No anesthetic was used. The growth of each tumor was measured thrice weekly until it reached a volume of 500 mm^3. Each treatment group had 7 animals and the procedure was repeated 3 times. Tumor volume was calculated as a hemiellipsoid, and in the untreated control animals, tumors reached the specified volume in 14.0 days. The delay is reported in terms of the mean number of additional days beyond the control required for the tumors in each group to reach the specified volume. The results were as follows:
The complex was also found to be effective in enhancing the killing effect of heat treatment (hyperthermia) in vivo. The procedure described in the preceding paragraph was carried out except that there was substituted for the single radiation dose a heat treatment by immersion of the tumor-bearing limb in a water bath at 44° C. for 30 minutes to raise the tumor temperature to 43° C. The means number of days delay (n=14) was as follows: […]

FSaII fibrosarcoma cells [2] = assay type: in vivo, mice; conditions: 300 mg/kg i.p.
Protocol: Fifteen minutes later radiation was delivered locally to the tumor bearing limb as a single dose of 10, 20, or 30 gray as indicated in the table. No anesthetic was used. The growth of each tumor was measured thrice weekly until it reached a volume of 500 mm^3. […] The delay is reported in terms of the mean number of additional days beyond the control required for the tumors in each group to reach the specified volume.

carcinoma cells = conditions: in words; Bernal et al.; cited from earlier work
EMT6 cells = experiment: Entry of platinum into EMT6 cells; assay type: cell-based; conditions: in words

N.N.[Cl][Pt][Cl] [CDDP, Cis-diamminedichloroplatinum (II)]
Mean No. Days Delay (Lewis Lung) (Lewis Lung; 5 mg/kg i.p.): < 1 days
Mean No. Days Delay (Lewis Lung) (Lewis Lung; 10 mg/kg i.p.): < 1 days
Mean No. Days Delay (FSaII) (FSaII; 5 mg/kg i.p.): 4.4 days
Mean No. Days Delay (FSaII) (FSaII; 10 mg/kg i.p.): 8.0 days
Mean No. of Metastases per Animal (Lewis Lung carcinoma; 10 mg/kg i.p.): 10.7 Metastases per Animal
Mean No. Days Delay (FSaII fibrosarcoma cells [1]; 5 mg/kg, heat 30 min at 43° C., heat alone 1.4): 5.9 days
Mean No. Days Delay (FSaII fibrosarcoma cells [1]; 5 mg/kg, no heat): 4.4 days

COc1cc([N+]#N)c(OC)cc1N=Nc1ccc([N+](=O)[O-])cc1 [Fast Black]
Mean No. Days Delay (Lewis Lung) (Lewis Lung; 250 mg/kg i.p.): 2.0 days
Mean No. Days Delay (FSaII) (FSaII; 250 mg/kg i.p.): 2.7 days
Mean No. of Metastases per Animal (Lewis Lung carcinoma; 50 mg/kg i.p.): 13.3 Metastases per Animal
Mean No. of Metastases per Animal (Lewis Lung carcinoma; 100 mg/kg i.p.): 12.3 Metastases per Animal
Mean No. of Metastases per Animal (Lewis Lung carcinoma; 250 mg/kg i.p.): 11.0 Metastases per Animal
Mean No. Days Delay (FSaII fibrosarcoma cells [2]; 0 Gray): 3.0 days
Mean No. Days Delay (FSaII fibrosarcoma cells [2]; 10 Gray 15 min later, radiation alone 1.8): 7.0 days
Mean No. Days Delay (FSaII fibrosarcoma cells [2]; 20 Gray 15 min later, radiation alone 6.3): 12.6 days
Mean No. Days Delay (FSaII fibrosarcoma cells [2]; 30 Gray 15 min later, radiation alone 8.8): 16.2 days
Mean No. Days Delay (FSaII fibrosarcoma cells [1]; 300 mg/kg, heat 30 min at 43° C., heat alone 1.4): 4.4 days
Mean No. Days Delay (FSaII fibrosarcoma cells [1]; 300 mg/kg, no heat): 2.7 days

COC(=O)c1ccccc1-c1c2ccc(=N)cc-2oc2cc(N)ccc12 [Rhodamine 123]
selective toxicity toward carcinoma cells (carcinoma cells): selectively toxic toward carcinoma cells

[Cl][Pt-2]([Cl])([Cl])[Cl].[K+].[K+] [potassium tetracloroplatinate, potassium tetrachloroplatinate]
entry of platinum into the cells (EMT6 cells): only very poor entry of platinum into the cells
